Measured values from the supplement of paper PMC10307832.

Key:
Assay in all cases: relative viability (nuclei count vs DMSO), 5 days (fraction); higher = more cells survive
[1] = compound: CC1=C(C(=O)N2C=CSC2=N1)CCN3CCC(=C(C4=CC=CC=C4)C5=CC=C(C=C5)F)CC3 + CC(C)C[C@H](NC(=O)[C@H](Cc1ccccc1)NC(=O)c1cnccn1)B(O)O [Bortezomib] (partner 0.002 µM)
Outline: (§1)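 One day after seeding in 1536-well plates, lung cancer cell lines were dosed by pin tool. Dosing was either single-drug or a fixed anchor-drug dose plus five library-drug doses (not always all listed) in √10 steps. After 5 days, nuclei were stained in one fix-and-stain step and counted on 4× images, and relative viability is the nuclei count of treated wells over that of vehicle wells, given as the median of duplicate plates.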

[2] = compound: CC1=C(C(=O)N2C=CSC2=N1)CCN3CCC(=C(C4=CC=CC=C4)C5=CC=C(C=C5)F)CC3 + CCNC(=O)c1noc(-c2cc(C(C)C)c(O)cc2O)c1-c1ccc(CN2CCOCC2)cc1 [Luminespib] (partner 0.01 µM)
Outline: as §1

[3] = compound: CC1=C(C(=O)N2C=CSC2=N1)CCN3CCC(=C(C4=CC=CC=C4)C5=CC=C(C=C5)F)CC3 + CC(=O)c1c(C)c2cnc(Nc3ccc(N4CCNCC4)cn3)nc2n(C2CCCC2)c1=O [Palbociclib] (partner 0.5 µM)
Outline: as §1

[4] = compound: CC1=C(C(=O)N2C=CSC2=N1)CCN3CCC(=C(C4=CC=CC=C4)C5=CC=C(C=C5)F)CC3 + Cc1nc(Nc2ncc(C(=O)Nc3c(C)cccc3Cl)s2)cc(N2CCN(CCO)CC2)n1 [Dasatinib] (partner 0.075 µM)
Outline: as §1

Row | Cell Line | relative viability ([1]; first compound 0.08 µM) | relative viability ([1]; first compound 0.253 µM) | relative viability ([1]; first compound 0.8 µM) | relative viability ([1]; first compound 2.53 µM) | relative viability ([1]; first compound 8 µM) | relative viability ([2]; first compound 0.08 µM) | relative viability ([2]; first compound 0.253 µM) | relative viability ([2]; first compound 0.8 µM) | relative viability ([2]; first compound 2.53 µM) | relative viability ([2]; first compound 8 µM) | relative viability ([3]; first compound 0.08 µM) | relative viability ([3]; first compound 0.8 µM) | relative viability ([3]; first compound 2.53 µM) | relative viability ([3]; first compound 8 µM) | relative viability ([4]; first compound 0.08 µM) | relative viability ([4]; first compound 0.253 µM) | relative viability ([4]; first compound 0.8 µM) | relative viability ([4]; first compound 2.53 µM) | relative viability ([4]; first compound 8 µM) | relative viability ([3]; first compound 0.253 µM)
1 | NCI-H2405 | 0.872 | 0.969 | 0.999 | 0.732 | 0.814 | 0.746 | 0.744 | 0.753 | 0.649 | 0.564 | 0.609 | 0.547 | 0.576 | 0.476 | 0.23 | 0.223 | 0.208 | 0.186 | 0.184 | –
2 | HCC-366 | – | 1.14 | 1.18 | 1.04 | 0.308 | – | – | – | – | – | 0.392 | 0.458 | 0.337 | 0.277 | 0.697 | 0.631 | 0.711 | 0.545 | 0.247 | 0.394
3 | NCI-H2342 | – | – | – | – | – | 0.657 | 0.791 | 0.789 | 0.66 | 0.619 | 0.48 | 0.548 | 0.519 | 0.528 | 0.255 | 0.304 | 0.291 | 0.306 | 0.247 | 0.487
4 | A-427 | 1.07 | 1.08 | 0.984 | 1.03 | 0.834 | 0.91 | 0.919 | 0.923 | 1.15 | 0.88 | 0.533 | 0.499 | 0.541 | 0.531 | 0.788 | 0.585 | 0.715 | 0.696 | 0.457 | 0.565
5 | HCC-15 | 1.05 | 1.04 | 1.09 | 0.964 | 0.786 | 0.444 | 0.321 | 0.22 | 0.444 | 0.293 | 0.738 | 0.679 | 0.729 | 0.556 | 0.638 | 0.561 | 0.643 | 0.678 | 0.586 | 0.744
6 | HOP-62 | 0.731 | 0.628 | 1.03 | 0.922 | 0.323 | 0.926 | 0.909 | 0.923 | 0.92 | 0.461 | 0.439 | 0.457 | 0.411 | 0.288 | 0.595 | 0.482 | 0.621 | 0.575 | 0.548 | 0.479
7 | NCI-H1993 | 0.834 | – | 0.919 | 1.5 | 0.987 | 0.79 | 0.841 | 0.916 | 0.897 | 0.768 | 0.583 | 0.592 | 0.705 | 0.614 | 0.513 | 0.533 | 0.559 | 0.596 | 0.507 | 0.619
8 | NCI-H460 | 0.718 | 0.799 | 1.3 | – | 0.184 | 0.0343 | 0.034 | 0.0356 | 0.0314 | 0.0271 | 0.187 | 0.203 | 0.0978 | 0.13 | 0.508 | 0.444 | 0.486 | 0.574 | 0.395 | 0.151
9 | ABC-1 | 0.313 | 0.297 | 0.252 | 0.244 | 0.269 | 0.743 | 0.607 | 0.429 | 0.329 | 0.564 | 0.579 | 0.581 | 0.559 | 0.67 | 0.622 | 0.606 | 0.455 | 0.512 | 0.467 | –
10 | Calu-6 | 1.05 | 1.14 | 0.933 | 1.02 | 0.767 | – | – | – | – | – | – | – | – | – | – | – | – | – | – | –
11 | UMC-11 | 0.793 | 0.609 | 0.731 | 0.861 | 0.595 | 1.18 | 1.05 | 1.07 | 1.11 | 0.786 | 0.309 | 0.272 | 0.321 | 0.328 | 0.526 | 0.422 | 0.525 | 0.824 | 0.357 | 0.321
12 | NCI-H1703 | 0.262 | 0.316 | 0.256 | 0.359 | 0.263 | – | – | – | – | – | – | – | – | – | – | – | – | – | – | –
13 | NCI-H358 | – | – | – | – | – | – | 0.339 | 0.384 | 0.307 | 0.261 | 0.138 | 0.145 | 0.162 | 0.128 | 0.175 | 0.21 | 0.133 | 0.153 | 0.218 | 0.136
14 | EBC-1 | 0.57 | 0.64 | 0.513 | 0.437 | 0.529 | – | – | – | – | – | – | – | – | – | – | – | – | – | – | –
15 | SK-MES-1 | – | – | – | – | – | 0.947 | 0.832 | 0.689 | 0.931 | 0.594 | 0.299 | 0.294 | 0.336 | 0.305 | 0.383 | 0.273 | 0.27 | 0.334 | 0.369 | 0.288
16 | NCI-H596 | 1.09 | 1.02 | 0.903 | 0.887 | 0.989 | 1.05 | 0.978 | 1.23 | 1.08 | 0.655 | – | – | – | – | 0.636 | 0.653 | 0.612 | 0.627 | 0.421 | –
17 | NCI-H1299 | 1.07 | 1.04 | 1.04 | 1.02 | 0.702 | – | – | – | – | – | – | – | – | – | – | – | – | – | – | –
18 | HCC-78 | 0.458 | 0.616 | 0.552 | 0.447 | 0.405 | – | – | – | – | – | 0.336 | 0.484 | 0.519 | 0.349 | 0.344 | 0.356 | 0.373 | 0.344 | 0.248 | 0.462
19 | NCI-H1944 | – | – | – | – | – | 0.782 | 0.926 | 0.751 | 0.775 | 0.584 | 0.305 | 0.341 | 0.29 | 0.259 | 0.243 | 0.237 | 0.193 | 0.215 | 0.242 | 0.31
20 | HCC-44 | 0.926 | 0.769 | 0.896 | 1.06 | 0.856 | 1.37 | 1.51 | – | 1.3 | 0.736 | 0.956 | 1.02 | 1.01 | 0.86 | – | – | – | – | – | 0.997
21 | NCI-H1395 | – | – | – | – | – | 0.606 | 0.746 | 1.01 | 0.955 | 0.776 | 0.623 | 0.551 | 0.616 | 0.61 | 0.417 | 0.406 | 0.416 | 0.394 | 0.438 | 0.656
22 | NCI-H2170 | – | – | – | – | – | 0.516 | 0.733 | 0.745 | 0.838 | 0.537 | 0.396 | 0.36 | 0.37 | 0.344 | 0.516 | 0.472 | 0.65 | 0.669 | 0.496 | 0.405
